Measured values as given in US9422293B2 (priority 2006, dated 2016).
Counter-ions that a name gives are not always drawn.

Target: rat TRPV1 (Rattus norvegicus (Rat), UniProt O35433)
Settings: read-out: Rat IC50
Protocol: Biological Testing: Functional Assay: Block of Capsaicin-Induced Ca^2+ Influx A. Human Assay
Cells were passaged frequently, every 3-5 days, to avoid overgrowth, depletion of essential medium components, or acidic medium exposure. Cells were passaged using a brief wash in 0.05% trypsin with 1 mM EDTA, followed by dissociation in divalent-free phosphate-buffered saline (Hyclone #SH30028.02). […] The assay buffer was composed of 130 mM NaCl, 2 mM KCl, 2 mM MgCl2, 10 mM HEPES, 5 mM glucose, and either 2 mM or 20 μM CaCl2. On the day of the experiment, the culture medium was replaced with 2 mM calcium assay buffer using an automated plate washer (ELx405; Biotek, VT). […] After loading the cells, the dye solution was replaced with 50 μL/well of 20 μM calcium assay buffer using the ELx405 plate washer. Test compounds (50 μL/well) were added to the plate and incubated for 30 min. […] The IC50 values were determined. […] The contents of the wells were mixed 3 times (40 μL mix volume) immediately after the additions were made. Concentration dependence of block was determined by exposing each well of cells in duplicate rows of a 96 well plate to a serial dilution of test compound. The concentration series usually started at 10 μM with a three-fold serial decrement in concentration. The magnitude of the capsaicin response was determined by measuring the change in fluo3 fluorescence before and 100 seconds after the addition of the agonist. Data were analyzed using a non-linear regression program (Origin; OriginLab, MA). IC50 values shown are the average (mean) of the results obtained.
The assay was performed as described above, using HEK293 cells transfected with rat TRPV1 (rTRPV1/HEK293). […] IC50 values shown are the average (mean) of the results obtained.

rat TRPV1, sequence (O35433 whole entry): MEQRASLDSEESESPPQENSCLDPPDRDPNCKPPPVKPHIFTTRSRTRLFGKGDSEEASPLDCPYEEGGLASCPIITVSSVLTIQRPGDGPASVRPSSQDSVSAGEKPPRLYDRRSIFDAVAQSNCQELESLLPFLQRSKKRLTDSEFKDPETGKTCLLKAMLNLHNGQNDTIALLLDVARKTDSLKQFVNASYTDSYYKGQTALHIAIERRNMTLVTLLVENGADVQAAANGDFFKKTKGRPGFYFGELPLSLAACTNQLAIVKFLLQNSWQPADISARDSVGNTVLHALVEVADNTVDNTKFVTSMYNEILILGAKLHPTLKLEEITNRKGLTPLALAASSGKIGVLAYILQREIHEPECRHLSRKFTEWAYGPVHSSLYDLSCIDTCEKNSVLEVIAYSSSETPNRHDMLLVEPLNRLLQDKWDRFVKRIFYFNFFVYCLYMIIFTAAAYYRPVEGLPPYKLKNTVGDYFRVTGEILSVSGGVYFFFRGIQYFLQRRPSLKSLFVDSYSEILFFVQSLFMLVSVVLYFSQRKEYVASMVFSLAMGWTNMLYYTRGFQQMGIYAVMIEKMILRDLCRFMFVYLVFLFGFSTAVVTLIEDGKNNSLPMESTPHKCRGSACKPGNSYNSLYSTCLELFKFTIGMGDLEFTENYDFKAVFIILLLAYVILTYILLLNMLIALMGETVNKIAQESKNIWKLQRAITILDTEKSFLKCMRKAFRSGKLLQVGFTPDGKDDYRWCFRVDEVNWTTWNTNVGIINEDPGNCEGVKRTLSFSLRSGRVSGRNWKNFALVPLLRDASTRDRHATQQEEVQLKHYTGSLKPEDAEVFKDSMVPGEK

SMILES | IC50
CN(C)CCN(C)c1nc2c(c(Nc3ccc(C(C)(C)C)cc3)n1)CCN(c1ncccc1C(F)(F)F)CC2 [Example 254, N^2-[2-(Dimethylamino)ethyl]-N^4-[4-(1,1-dimethylethyl)phenyl]-N^2-methyl-7-[3-(trifluoromethyl)pyridin-2-yl]-6,7,8,9-tetrahydro-5H-pyrimido[4,5-d]azepine-2,4-diamine] | 100 nM
FC(F)(F)c1cccnc1N1CCc2nc(N3CCCCCC3)nc(NCc3ccc(Cl)c(Cl)c3)c2CC1 [Example 255, 2-Azepan-1-yl-N-[(3,4-dichlorophenyl)methyl]-7-[3-(trifluoromethyl)pyridin-2-yl]-6,7,8,9-tetrahydro-5H-pyrimido[4,5-d]azepin-4-amine] | 700 nM
COCCN(C)c1nc2c(c(Nc3ccc(C(C)(C)C)cc3)n1)CCN(c1ncccc1C(F)(F)F)CC2 [Example 257, N^4-[4-(1,1-Dimethylethyl)phenyl]-N^2-methyl-N^2-[2-(methyloxy)ethyl]-7-[3-(trifluoromethyl)pyridin-2-yl]-6,7,8,9-tetrahydro-5H-pyrimido[4,5-d]azepine-2,4-diamine] | 20 nM
OCC1CCCCN1c1nc2c(c(Nc3ccc(C(F)(F)F)cc3)n1)CCN(c1ncccc1C(F)(F)F)CC2 (stereo not drawn) [Example 259, [1-(4-{[4-(Trifluoromethyl)phenyl]amino}-7-[3-(trifluoromethyl)pyridin-2-yl]-6,7,8,9-tetrahydro-5H-pyrimido[4,5-d]azepin-2-yl)piperidin-2-yl]methanol] | 90 nM
OC[C@@H]1CCCN1c1nc2c(c(Nc3ccc(C(F)(F)F)cc3)n1)CCN(c1ncccc1C(F)(F)F)CC2 [Example 260, [(2S)-1-(4-{[4-(Trifluoromethyl)phenyl]amino}-7-[3-(trifluoromethyl)pyridin-2-yl]-6,7,8,9-tetrahydro-5H-pyrimido[4,5-d]azepin-2-yl)pyrrolidin-2-yl]methanol hydrochloride salt] | 50 nM
OC[C@H]1CCCN1c1nc2c(c(Nc3ccc(C(F)(F)F)cc3)n1)CCN(c1ncccc1C(F)(F)F)CC2 [Example 261, [(2R)-1-(4-{[4-(Trifluoromethyl)phenyl]amino}-7-[3-(trifluoromethyl)pyridin-2-yl]-6,7,8,9-tetrahydro-5H-pyrimido[4,5-d]azepin-2-yl)pyrrolidin-2-yl]methanol hydrochloride salt] | 340 nM
OC[C@@H]1CCCN1c1nc2c(c(Nc3ccc(C(F)(F)F)cn3)n1)CCN(c1ncccc1C(F)(F)F)CC2 [Example 262, [(2S)-1-(7-[3-(Trifluoromethyl)pyridin-2-yl]-4-{[5-(trifluoromethyl)pyridin-2-yl]amino}-6,7,8,9-tetrahydro-5H-pyrimido[4,5-d]azepin-2-yl)pyrrolidin-2-yl]methanol hydrochloride salt] | 1640 nM
FC(F)(F)c1ccc(Nc2nc(N[C@@H]3CCOC3)nc3c2CCN(c2ncccc2C(F)(F)F)CC3)nc1 [Example 263, N^2-[(3R)-Tetrahydrofuran-3-yl]-7-[3-(trifluoromethyl)pyridin-2-yl]-N^4-[5-(trifluoromethyl)pyridin-2-yl]-6,7,8,9-tetrahydro-5H-pyrimido[4,5-d]azepine-2,4-diamine] | 1460 nM
CC(C)(C)c1ccc(Nc2nc(N[C@@H]3CCOC3)nc3c2CCN(c2ncccc2C(F)(F)F)CC3)cc1 [Example 264, N^4-[4-(1,1-Dimethylethyl)phenyl]-N^2-[(3R)-tetrahydrofuran-3-yl]-7-[3-(trifluoromethyl)pyridin-2-yl]-6,7,8,9-tetrahydro-5H-pyrimido[4,5-d]azepine-2,4-diamine] | 1300 nM
CC(C)N(C)c1nc2c(c(Nc3ccc(C(F)(F)F)nc3)n1)CCN(c1ncccc1C(F)(F)F)CC2 [Example 266, N^2-Methyl-N^2-(1-methylethyl)-7-[3-(trifluoromethyl)pyridin-2-yl]-N^4-[6-(trifluoromethyl)pyridin-3-yl]-6,7,8,9-tetrahydro-5H-pyrimido[4,5-d]azepine-2,4-diamine] | 450 nM
Cc1cc(C(F)(F)F)ccc1Nc1nc(N(C)C2CCCCC2)nc2c1CCN(c1ncccc1C(F)(F)F)CC2 [Example 267, N^2-Cyclohexyl-N^2-methyl-N^4-[2-methyl-4-(trifluoromethyl)phenyl]-7-[3-(trifluoromethyl)pyridin-2-yl]-6,7,8,9-tetrahydro-5H-pyrimido[4,5-d]azepine-2,4-diamine] | 1870 nM
FC(F)(F)c1ccc(Nc2nc(N3C4CCC3CC4)nc3c2CCN(c2ncccc2C(F)(F)F)CC3)cc1 [Example 268, 2-(7-Azabicyclo[2.2.1]hept-7-yl)-N-[4-(trifluoromethyl)phenyl]-7-[3-(trifluoromethyl)pyridin-2-yl]-6,7,8,9-tetrahydro-5H-pyrimido[4,5-d]azepin-4-amine] | 150 nM
Cc1cc(C(F)(F)F)ccc1Nc1nc(N2CCCC2C(C)C)nc2c1CCN(c1ncccc1C(F)(F)F)CC2 (stereo not drawn) [Example 269, 2-[2-(1-Methylethyl)pyrrolidin-1-yl]-N-[2-methyl-4-(trifluoromethyl)phenyl]-7-[3-(trifluoromethyl)pyridin-2-yl]-6,7,8,9-tetrahydro-5H-pyrimido[4,5-d]azepin-4-amine] | 180 nM
FC(F)(F)c1ccc(Nc2nc(NCC3CCCCC3)nc3c2CCN(c2ncccc2C(F)(F)F)CC3)cn1 [Example 270, N^2-(Cyclohexylmethyl)-7-[3-(trifluoromethyl)pyridin-2-yl]-N^4-[6-(trifluoromethyl)pyridin-3-yl]-6,7,8,9-tetrahydro-5H-pyrimido[4,5-d]azepine-2,4-diamine] | 830 nM
OCC1CN(c2nc3c(c(Nc4ccc(C(F)(F)F)cc4)n2)CCN(c2ncccc2C(F)(F)F)CC3)CCO1 (stereo not drawn) [Example 271, [4-(4-{[4-(Trifluoromethyl)phenyl]amino}-7-[3-(trifluoromethyl)pyridin-2-yl]-6,7,8,9-tetrahydro-5H-pyrimido[4,5-d]azepin-2-yl)morpholin-2-yl]methanol] | 840 nM
CC(C)N(C)c1nc2c(c(Nc3ccc(C(F)(F)F)cc3)n1)CCN(c1ncccc1C(F)(F)F)CC2 [Example 272, N^2-Methyl-N^2-(1-methylethyl)-N^4-[4-(trifluoromethyl)phenyl]-7-[3-(trifluoromethyl)pyridin-2-yl]-6,7,8,9-tetrahydro-5H-pyrimido[4,5-d]azepine-2,4-diamine] | 200 nM
Cc1cc(C(F)(F)F)ccc1Nc1nc(N2CCOC(CO)C2)nc2c1CCN(c1ncccc1C(F)(F)F)CC2 (stereo not drawn) [Example 273, [4-(4-{[2-Methyl-4-(trifluoromethyl)phenyl]amino}-7-[3-(trifluoromethyl)pyridin-2-yl]-6,7,8,9-tetrahydro-5H-pyrimido[4,5-d]azepin-2-yl)morpholin-2-yl]methanol] | 680 nM
CN(c1nc2c(c(Nc3ccc(C(F)(F)F)nc3)n1)CCN(c1ncccc1C(F)(F)F)CC2)C1CCCCC1 [Example 275, N^2-Cyclohexyl-N^2-methyl-7-[3-(trifluoromethyl)pyridin-2-yl]-N^4-[6-(trifluoromethyl)pyridin-3-yl]-6,7,8,9-tetrahydro-5H-pyrimido[4,5-d]azepine-2,4-diamine] | 190 nM
Cc1ccccc1Nc1nc2c(c(Nc3ccc(C(F)(F)F)cc3)n1)CCN(c1ncccc1C(F)(F)F)CC2 [Example 278, N^2-(2-Methylphenyl)-N^4-[4-(trifluoromethyl)phenyl]-7-[3-(trifluoromethyl)pyridin-2-yl]-6,7,8,9-tetrahydro-5H-pyrimido[4,5-d]azepine-2,4-diamine trifluoroacetic acid salt] | 670 nM
Cc1cccc(Nc2nc3c(c(Nc4ccc(C(F)(F)F)cc4)n2)CCN(c2ncccc2C(F)(F)F)CC3)c1 [Example 279, N^2-(3-Methylphenyl)-N^4-[4-(trifluoromethyl)phenyl]-7-[3-(trifluoromethyl)pyridin-2-yl]-6,7,8,9-tetrahydro-5H-pyrimido[4,5-d]azepine-2,4-diamine trifluoroacetic acid salt] | > 6670 nM
CC(C)c1nc2c(c(Nc3ccc(C(F)(F)F)cc3)n1)CCN(c1ncccc1NS(C)(=O)=O)CC2 [Example 281, N-{2-[2-(1-Methylethyl)-4-{[4-(trifluoromethyl)phenyl]amino}-5,6,8,9-tetrahydro-7H-pyrimido[4,5-d]azepin-7-yl]pyridin-3-yl}methanesulfonamide] | 2620 nM
CC(C)c1nc2c(c(Nc3ccc(C(F)(F)F)nc3)n1)CCN(c1ncccc1S(C)(=O)=O)CC2 [Example 282, 2-(1-Methylethyl)-7-[3-(methylsulfonyl)pyridin-2-yl]-N-[6-(trifluoromethyl)pyridin-3-yl]-6,7,8,9-tetrahydro-5H-pyrimido[4,5-d]azepin-4-amine] | 130 nM
CS(=O)(=O)c1cccnc1N1CCc2ncnc(Nc3ccc(C(F)(F)F)cc3)c2CC1 [Example 283, 7-[3-(Methylsulfonyl)pyridin-2-yl]-N-[4-(trifluoromethyl)phenyl]-6,7,8,9-tetrahydro-5H-pyrimido[4,5-d]azepin-4-amine] | 8520 nM
CC(C)c1nc2c(c(Nc3ccc(C(C)(C)C)cc3)n1)CCN(c1ncccc1N)CC2 [Example 284, 7-(3-Aminopyridin-2-yl)-N-[4-(1,1-dimethylethyl)phenyl]-2-(1-methylethyl)-6,7,8,9-tetrahydro-5H-pyrimido[4,5-d]azepin-4-amine] | 550 nM
CC(C)c1nc2c(c(Nc3ccc(C(F)(F)F)cc3)n1)CCN(c1ncc(C(=O)O)cc1Cl)CC2 [Example 288, 5-Chloro-6-[2-(1-methylethyl)-4-{[4-(trifluoromethyl)phenyl]amino}-5,6,8,9-tetrahydro-7H-pyrimido[4,5-d]azepin-7-yl]pyridine-3-carboxylic acid trifluoroacetic acid salt] | 2020 nM
CC(C)c1nc2c(c(Nc3ccc(C(C)(C)C)cc3)n1)CCN(c1ncc([N+](=O)[O-])cc1C(F)(F)F)CC2 [Example 290, N-[4-(1,1-Dimethylethyl)phenyl]-2-(1-methylethyl)-7-[5-nitro-3-(trifluoromethyl)pyridin-2-yl]-6,7,8,9-tetrahydro-5H-pyrimido[4,5-d]azepin-4-amine] | 100 nM
CC(C)c1nc2c(c(Nc3ccc(C(F)(F)F)cc3)n1)CCN(c1ncc([N+](=O)[O-])cc1C(F)(F)F)CC2 [Example 291, 2-(1-Methylethyl)-7-[5-nitro-3-(trifluoromethyl)pyridin-2-yl]-N-[4-(trifluoromethyl)phenyl]-6,7,8,9-tetrahydro-5H-pyrimido[4,5-d]azepin-4-amine] | 170 nM
